Data on 87 compounds can be found in a melting point compilation (Tetko et al.; mined from patent text by program, amines drawn as free bases though some values may be those of a salt).

Take `CCC(Oc1c(C)cccc1C)C(=O)OC1CC(O)C=C2C=CC(C)C(CCC3CC(O)CC(=O)O3)C21` (mixture of isomers): the melting point (as a rule, the temperature of the solid-liquid transition) is 125 to 127 °C.

`Cc1c(N2C[C@@H](NC(=O)C(F)(F)F)C(C)(C)C2)c(F)c(N)c2c(=O)c(C(=O)O)cn(C3CC3)c12`: the melting point was in the range of 254 to 255 °C. In turn, `CC(C)C(=O)N[C@H]1N=C(c2ccccc2)c2ccccc2N(C)C1=O` came in with a melting point of 87 to 107 °C.

The compound `CCN1CNC(=O)NC1=O` returned a melting point of 220 to 224 °C. The same measure for `N#Cc1cc(C(=O)O)c2c(c1)C(C(=O)O)CCN2` (configuration not stated): 235 to 236 °C; for `COC(=O)CCCCC(NC(=O)c1ccccc1)C(C)=O` (configuration not stated): 59 to 60 °C; for `COc1c(Cl)c(-c2nnc(C)s2)cc2oc(=O)c(C)c(C)c12`: 209 to 210 °C. The same measure for `CC1(C2CCCC2)Cc2cc(NCC(=O)O)c(Cl)c(Cl)c2C1=O` (configuration not stated): 199 to 200 °C; for `Cn1cc(C#N)nc1-c1ncc[nH]1`: 238 to 239 °C; for `CCCCCC(C)C(C)c1cc(O)c2c3c(c(=O)oc2c1)CSCC3` (configuration not stated): 150 to 152 °C. On to `C=C(C)c1cc(C(=O)OC)c(OCc2ccccc2)cc1OCc1ccccc1`, for which the melting point is 92 to 94 °C. `O=S(=O)(Nc1nc(O)ncc1F)c1ccccc1` returned a melting point of 221 to 223 °C. `O=C(O)c1cccc(OCc2c(Cl)cccc2Cl)c1` yielded a melting point of 187 to 189 °C. With `N=C(N)Nc1nc(CSCCNc2c(NCc3ccncc3)c(=O)c2=O)cs1` the figure was 172 to 175 °C; with `CN1C(=O)c2cscc2N(C(=O)Cc2ccccc2)c2ccccc21`, 210 to 212 °C. The same measure for `O=C(CN1CCN(C(=O)c2cc(C(F)(F)F)cc(C(F)(F)F)c2)[C@H](Cc2c[nH]c3ccccc23)C1)c1ccc(F)cc1`: 95 to 105 °C; for `CC(C)[C@H](NC(=O)OCc1ccccn1)C(=O)N[C@@H](Cc1ccccc1)[C@H](O)[C@H](O)[C@H](Cc1ccccc1)NC(=O)OCc1cccnc1`: 166 to 168 °C; for `CCNC(=O)c1c(OC(C)(C)C)ccc2ccccc12`: 126 to 127 °C. With `CCCCCCCCc1sc(NC(=O)c2cc3ccccc3n2CCC(=O)OCC)nc1-c1cc(OC)c(Cl)cc1OC` the figure was 59 to 61 °C; with `N[C@@H](Cc1ccccc1)[C@@H](O)C[C@H](Cc1ccccc1)NC(=O)OCc1cncs1`, 61 to 63 °C; with `Cc1nc2c(cc1C(=O)NC(=N)N)CCCCC2`, 230 to 232 °C.

In turn, `CCOC(=O)c1cc2cc(-c3ccc(C(C)=NO)cc3)ccc2o1` gave a melting point of 220 to 222 °C. With `COc1cc(N)c(Cl)cc1C(=O)NCC1CCN(CCCCNC(=O)c2ccccc2)CC1` the figure was 165 to 168 °C; with `Cc1cc(Cl)ccc1Oc1cccc(-c2ncccn2)n1`, 105 °C; with `O=C1CC(c2ccc(O)cc2O)Oc2cc(O)cc(O)c21` (configuration not stated), 258 to 259 °C. With `COc1ccccc1Oc1c(O)nc(SC)nc1O` the figure was 206 to 210 °C. With `CCOc1ccc(OC)cc1C(N)=O` the figure was 128 to 130 °C; with `CCCC[C@H](F)C(=O)N[C@@H](C)c1ccc([N+](=O)[O-])cc1`, 84.5 to 86.5 °C. `CCCCCCCCCN=C=O` came in with a melting point of 104 to 105 °C. The same measure for `CSCC(=O)[C@H](CC1CCCCC1)NC(=O)[C@H](CC(C)C)NC(=O)OCc1ccccc1`: 83 to 84 °C; for `O=C(O)C(CNC(=O)C1Cc2ccccc2N1S(=O)(=O)c1ccc(-c2cccc(C(F)(F)F)c2)cc1)Cc1ccccc1` (configuration not stated): 85 to 90 °C. With `COC(=O)c1ccc(OCCNC(=O)C2Cc3ccccc3N2S(=O)(=O)c2ccc(-c3ccc(F)cc3)cc2)c(F)c1` (configuration not stated) the figure was 82 to 87 °C; with `CC1C(=O)OC2=C(CSc3ccccc32)C1=O` (configuration not stated), 275 to 277 °C; with `O=C1c2ccccc2C(=O)N1Cc1cc(=O)c(OC(c2ccccc2)c2ccccc2)cn1OC(c1ccccc1)c1ccccc1`, 145 to 147 °C. The same measure for `COc1cccc(C(=O)Nc2ccc(S(N)(=O)=O)cc2)c1SSc1c(OC)cccc1C(=O)Nc1ccc(S(N)(=O)=O)cc1`: 188 to 189 °C; for `C[C@@H](n1ccn(-c2ccc(O)cc2)c1=O)[C@](O)(Cn1cncn1)c1ccc(F)cc1F`: 93 to 103 °C; for `CNC(=O)c1ccc(-c2ccc3nnn(C(C)(C)c4ccc5ncccc5c4)c3n2)cc1F`: 171 to 173 °C. In turn, `CC(Cc1ccc(-c2ccc(Cl)cc2)cc1Cl)NC(=O)c1cn(C)nc1C(F)F` (configuration not stated) gave a melting point of 96 to 98 °C. With `Cc1cc(C)c2c(O)c([N+](=O)[O-])c(=O)oc2c1` the figure was 186 to 187 °C; with `CC1C(=O)N(c2ccc(O)cc2)C(=S)N1c1ccc(Oc2ccc(F)cc2)cc1` (configuration not stated), 148 °C. The same measure for `O=C(Nc1ccc(C(=O)N2CCc3sc(Cc4ccccn4)nc3-c3ccccc32)cc1)c1ccccc1-c1ccccc1`: 215 to 218 °C; for `COc1cc(C)c(C(=O)c2c(C)cncc2Br)c(OC)c1OC`: 88 to 93 °C. The same measure for `C=CCOc1ccccc1-c1ncc(C(=O)OCC)c(=O)[nH]1`: 118 to 120 °C; for `Oc1ccc(-c2cc3cc(O)ccc3o2)c(Br)c1`: 195 °C.

On to `Cc1c2n(c3ccccc13)C(=O)N(C(C)c1ncn(C(c3ccccc3)(c3ccccc3)c3ccccc3)c1C)CC2` (configuration not stated), for which the melting point was 71 to 76 °C. The same measure for `CN1Cc2cccnc2N(c2cccc(C(F)(F)F)c2)C1=O`: 122 to 124 °C; for `Cc1cc2cc(CN3CCCCCC3)cnc2cc1NC(=O)c1ccc(-c2ccccc2)cc1F`: 151 °C; for `Cc1cc(C)c2c(c1C)OC(C)(C)C2=O`: 99 to 101 °C.

Take `CCCCC(CO)Nc1ccc([N+](=O)[O-])cc1C(=O)NCc1ccc2c(c1)OCO2` (configuration not stated): the melting point lay in the range of 112 to 115 °C. The same measure for `Oc1ccc([C@H]2CC[C@H](NCC#Cc3ccccc3)CC2)cc1`: 131 to 136 °C. The same measure for `CCOC(=O)N1CCN(c2cn(C)c3nc(OCc4ccccn4)ccc23)C(=O)C1`: 143 °C. The same measure for `CCN1c2ccccc2NC(=S)c2cccnc21`: 194 to 196 °C; for `Cc1nc(N2C[C@@H](O)CC2=O)sc1C(=O)NCc1ccccc1`: 203 to 204 °C. As to `NC(=O)CC(CC(N)=O)c1c(Cl)cccc1Cl`, the melting point lay within 221 to 225 °C. The compound `Nc1nc2ccccc2c2c1nc(N)n2Cc1ccccc1` gave a melting point of 254 to 256 °C. The compound `CSc1nc2c(cc1F)c(=O)[nH]c(=O)n2C1CC1` returned a melting point of 220 to 222 °C. Compound `CCOC(=O)/C=C(C)/C=C/C=C(\C)C1=Cc2cc(C)ccc2OC1` came in with a melting point of 135 °C. The same measure for `CCOC(=O)c1cn(CCF)c2nc(N3CCC(N(C)C(C)=O)C3)c(F)cc2c1=O` (configuration not stated): 227 to 229 °C; for `COc1ccc(C2CCC(=O)Nc3ccccc3C2=O)cc1` (configuration not stated): 244 to 245 °C; for `O=c1c2cnccc2[nH]c2ccnn12`: more than 300 °C. The compound `CCn1cc(C(=O)O)c(=O)c2cc(F)c(N3CCNC(c4ccc(C)o4)C3)cc21` (configuration not stated) showed a melting point of 186 to 188 °C. In turn, `COC(=O)c1ccc(C(F)(F)F)cc1N(S(C)(=O)=O)S(C)(=O)=O` gave a melting point of 221 to 225 °C. With `CC(C)(C)c1cc(C(=O)C(=O)O)cc(C(C)(C)C)c1O` the figure was 125 to 126 °C. The same measure for `Cc1ncc([N+](=O)[O-])n1CCN1C(=O)NC(c2ccccc2)(c2ccccc2)C1=O`: 209 to 210 °C; for `O=C(NC(CO)CO)OCc1ccccc1`: 104 to 106 °C; for `c1ccc2c(c1)cc(-c1nnn[nH]1)c1nnnn12`: 280 to 282 °C. The same measure for `CNc1nc(S(C)=O)nc(N)c1[N+](=O)[O-]` (configuration not stated): 229 to 234 °C. For the compound `COc1cc(CC(C#N)=CNc2ccccc2)c2c(c1OC)OC(C1CC1)C=C2` (racemic), the melting point was determined as 140 °C. The same measure for `CN(C)C(=O)c1cnn(C)c1C(=O)Nc1ccn2nc(N3CCOCC3)nc2c1`: 237 to 240 °C. `COC(=O)COc1ccc(NC(=O)COCc2ccccc2)cc1` gave a melting point of 76 to 77.5 °C. The same measure for `Cc1nc(Cl)ccc1C#N`: 104 to 105 °C; for `COc1ccc(-c2ccc(N3CCCN(c4ccc(-c5ccc(OC)cc5OC)cn4)CC3)nc2)c(OC)c1`: 161 to 163 °C. With `CC(C)(C)c1ccc(C(N)=O)cc1[N+](=O)[O-]` the figure was 114 to 115 °C; with `C[C@@H]1C[C@H](I)[C@@H]2C[C@H]1C(=O)O2`, 99 to 100 °C. With `Cc1ccc(S(=O)(=O)Oc2c(C(=O)c3ccc(S(C)(=O)=O)cc3Cl)cnn2C)cc1` the figure was 141 to 145 °C; with `CCCCC(Br)C(=O)c1cc(NC(C)=O)ccc1O` (configuration not stated), 137 to 138 °C.

With `Oc1cccc(-c2cnc3cnc(-c4cccc(O)c4)nc3c2)c1`, the melting point is 264 to 265 °C. With `O=C1c2ccccc2COc2ccc(CCN3CCC(n4c(=O)[nH]c5ccccc54)CC3)cc21` the figure was 116 to 120 °C. With `O=C1c2cccc3c(N4CCCCC4)c(Br)cc(c23)C(=O)N1O` the figure was more than 250 °C. For `CCCc1nn(C)c2c(-c3ccc(S(C)(=O)=O)cc3)nc(-c3ccc(F)cc3)nc12`, the melting point was in the range of 208 to 210 °C. Compound `O=C(Cc1ccccc1)NC1C(=O)N2C1SC1(CCN(Cc3ccccc3)CC1)C2C(=O)OCc1ccccc1` (configuration not stated) registered a melting point of 130 to 131 °C.

In the case of `Clc1c(-c2ccc(OCc3ccccc3)cc2)[nH]c2ccc(OCc3ccccc3)cc12`, the melting point lay within 157 to 160 °C. The same measure for `CCOC(=O)C(=O)Nc1cc(C)c(C(=O)OCC)s1`: 141 to 142 °C; for `CCOC(=O)/C(=C\Nc1cc(OC)cc(OC)c1)c1ccccc1`: 75 to 76 °C.

As for `Oc1ncnc(C(F)F)c1Cl`, the melting point was 148 to 150 °C.

Turning to `CS(=O)Cc1cccc(-c2nc(=O)c3ccccc3s2)n1` (configuration not stated), the melting point fell in the range of 184 to 186 °C.

In turn, `O=C(NCCSCc1ccccc1Cl)c1c(Cl)cccc1Cl` returned a melting point of 110 to 112 °C.
